Data published in patent US20080009418A1, “Selective Inhibitors” (Alchemia LTD., priority 2004, published 2008).

Experiments:
[1] = molecular target: T1, Human neuropeptide Y (NPY-Y1) (Homo sapiens, UniProt P25929); assay: Radioligand binding, human neuropeptide Y NPY-Y1 membranes, FlashPlate, [125I]-PYY; details: compound at 10 μM; [125I]-PYY
T1 construct: purchased Perkin Elmer Biosignal
T1 sequence (P25929 1-384): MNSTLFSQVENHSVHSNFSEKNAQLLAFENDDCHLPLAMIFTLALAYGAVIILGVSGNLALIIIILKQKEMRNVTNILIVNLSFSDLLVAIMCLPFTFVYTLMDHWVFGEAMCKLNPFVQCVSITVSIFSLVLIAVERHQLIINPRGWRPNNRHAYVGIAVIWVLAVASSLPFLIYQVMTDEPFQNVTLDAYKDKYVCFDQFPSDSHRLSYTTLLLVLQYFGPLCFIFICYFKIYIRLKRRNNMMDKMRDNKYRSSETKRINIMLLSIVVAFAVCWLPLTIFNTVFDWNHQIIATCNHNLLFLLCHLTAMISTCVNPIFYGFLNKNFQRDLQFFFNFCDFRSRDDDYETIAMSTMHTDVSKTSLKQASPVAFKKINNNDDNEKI
In short: (§1)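 Cloned human receptor membranes were coated onto FlashPlate wells and incubated with radioligand and compound (added from a 0.5 mM DMSO daughter plate) for 1 hour at room temperature in the dark. Scintillation counting gave percent inhibition, with DMSO defining total and reference ligand defining non-specific binding.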

Human κ-Opioid (KOP) = molecular target: T2, Human κ-Opioid (KOP) (Homo sapiens, UniProt P41145); assay: Radioligand binding, human κ-opioid (KOP) membranes, filtration, [3H]-Diprenorphine; details: compound at 10 μM; [3H]-Diprenorphine
T2 construct: purchased Perkin Elmer Biosignal
T2 sequence (P41145 whole entry): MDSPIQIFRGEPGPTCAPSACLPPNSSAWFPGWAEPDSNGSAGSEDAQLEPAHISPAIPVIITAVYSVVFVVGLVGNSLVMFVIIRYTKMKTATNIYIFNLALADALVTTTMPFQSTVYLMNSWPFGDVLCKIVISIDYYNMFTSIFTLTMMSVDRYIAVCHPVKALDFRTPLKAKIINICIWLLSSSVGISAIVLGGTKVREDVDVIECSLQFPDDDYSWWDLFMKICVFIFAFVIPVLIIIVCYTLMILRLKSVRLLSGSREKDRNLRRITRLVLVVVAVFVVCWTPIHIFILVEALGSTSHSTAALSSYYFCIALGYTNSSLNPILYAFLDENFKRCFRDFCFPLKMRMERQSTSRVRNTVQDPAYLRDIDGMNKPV
In short: (§2)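 Filtration binding on cloned human receptor membranes (1 Unit/well), [125I]-Substance P for NK1 and [3H]-Diprenorphine for KOP, 1 h at room temperature. Filters PEI-presoaked, washed with cold 50 mM Tris-HCl pH 7.4, counted by scintillation; percent inhibition calculated, reference ligand defining non-specific binding.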

Mouse urotensin (mUR2) = molecular target: T3, Mouse urotensin (mUR2) (Mus musculus, UniProt Q8VIH9); assay: Radioligand binding, mouse urotensin mUR2 membranes, FlashPlate, [125I]-Urotensin II; details: compound at 10 μM; [125I]-Urotensin II
T3 construct: purchased Perkin Elmer Biosignal
T3 sequence (Q8VIH9 1-385): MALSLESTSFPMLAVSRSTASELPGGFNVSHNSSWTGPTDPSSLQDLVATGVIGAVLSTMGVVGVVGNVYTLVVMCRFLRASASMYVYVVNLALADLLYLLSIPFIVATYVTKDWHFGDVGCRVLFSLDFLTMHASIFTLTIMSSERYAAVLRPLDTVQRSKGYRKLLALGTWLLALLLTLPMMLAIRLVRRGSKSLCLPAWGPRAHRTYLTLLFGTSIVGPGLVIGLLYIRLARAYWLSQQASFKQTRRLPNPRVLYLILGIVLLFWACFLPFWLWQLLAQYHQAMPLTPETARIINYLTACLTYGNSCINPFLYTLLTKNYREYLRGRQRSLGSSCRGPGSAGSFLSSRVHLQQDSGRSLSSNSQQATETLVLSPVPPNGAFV
In short: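 Cloned mouse urotensin (mUR2) receptor membranes from Perkin Elmer Biosignal were immobilized in FlashPlate microplates using a proprietary coating. Each well got 19.5 μl buffer, then 0.5 μl of DMSO, reference ligand, or compound. Adding 5 μl of [125I]-Urotensin II, diluted to 5× final concentration in binding buffer, started binding. Plates were sealed with TopSeal-A and incubated 1 hour at room temperature in the dark. Wells were counted for 30 seconds each on a TopCount after a 60-second delay, and percentage inhibition was calculated.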

Human μ-opioid (MOP) = molecular target: T4, Human μ-opioid (MOP) (Homo sapiens, UniProt P35372); assay: Radioligand binding, human μ-opioid (MOP) membranes, FlashPlate, [3H]-Naloxone; details: compound at 10 μM; [3H]-Naloxone
T4 construct: purchased Perkin Elmer Biosignal
T4 sequence (P35372 whole entry): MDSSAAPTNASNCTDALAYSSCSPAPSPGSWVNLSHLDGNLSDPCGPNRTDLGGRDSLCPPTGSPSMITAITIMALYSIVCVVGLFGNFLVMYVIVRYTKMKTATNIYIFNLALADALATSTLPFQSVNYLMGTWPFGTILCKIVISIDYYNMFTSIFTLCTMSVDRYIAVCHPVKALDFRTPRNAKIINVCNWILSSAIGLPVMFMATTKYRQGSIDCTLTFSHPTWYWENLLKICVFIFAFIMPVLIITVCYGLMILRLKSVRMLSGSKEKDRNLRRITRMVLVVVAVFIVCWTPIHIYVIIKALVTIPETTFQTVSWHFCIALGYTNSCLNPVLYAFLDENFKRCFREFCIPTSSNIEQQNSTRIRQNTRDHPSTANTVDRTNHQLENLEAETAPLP
In short: as §1

Human Melanocortin (MC4) = molecular target: T5, Human Melanocortin (MC4) (Homo sapiens, UniProt P32245); assay: Radioligand binding, human melanocortin MC4 membranes, FlashPlate, [125I]-NDP-αMSH; details: compound at 10 μM; [125I]-NDP-αMSH
T5 construct: purchased Perkin Elmer Biosignal
T5 sequence (P32245 whole entry): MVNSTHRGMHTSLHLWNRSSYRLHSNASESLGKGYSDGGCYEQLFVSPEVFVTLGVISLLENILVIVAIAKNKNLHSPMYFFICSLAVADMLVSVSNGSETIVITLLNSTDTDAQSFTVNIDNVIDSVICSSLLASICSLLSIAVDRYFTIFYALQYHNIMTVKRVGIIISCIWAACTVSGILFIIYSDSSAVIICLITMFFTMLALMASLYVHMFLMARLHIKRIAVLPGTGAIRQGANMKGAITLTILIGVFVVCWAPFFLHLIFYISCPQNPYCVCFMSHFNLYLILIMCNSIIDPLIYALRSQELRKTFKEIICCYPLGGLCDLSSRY
In short: as §1

Human opioid (ORL1) = molecular target: T6, Human opioid (ORL1) (Homo sapiens, UniProt P41146); assay: Radioligand binding, human opioid ORL1 membranes, FlashPlate, [125I]-Nociceptin; details: compound at 10 μM; [125I]-Nociceptin
T6 construct: purchased Perkin Elmer Biosignal
T6 sequence (P41146 whole entry): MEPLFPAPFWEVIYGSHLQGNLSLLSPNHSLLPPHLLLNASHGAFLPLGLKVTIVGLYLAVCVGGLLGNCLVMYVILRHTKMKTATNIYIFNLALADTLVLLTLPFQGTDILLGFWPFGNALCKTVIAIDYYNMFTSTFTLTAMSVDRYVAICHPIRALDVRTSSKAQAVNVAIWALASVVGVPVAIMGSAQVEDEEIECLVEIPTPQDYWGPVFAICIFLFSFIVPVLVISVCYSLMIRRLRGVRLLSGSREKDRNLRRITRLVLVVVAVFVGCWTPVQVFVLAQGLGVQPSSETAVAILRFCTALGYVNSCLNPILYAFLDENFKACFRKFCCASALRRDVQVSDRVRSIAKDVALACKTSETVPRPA
In short: as §1

[2] = molecular target: T7, Human melanin-concentrating hormone (MCH1) (Homo sapiens, UniProt Q99705); assay: Radioligand binding, human melanin-concentrating hormone MCH1 membranes, FlashPlate, [125I]-S36057; details: compound at 10 μM; [125I]-S36057
T7 construct: purchased Perkin Elmer Biosignal
T7 sequence (Q99705 whole entry): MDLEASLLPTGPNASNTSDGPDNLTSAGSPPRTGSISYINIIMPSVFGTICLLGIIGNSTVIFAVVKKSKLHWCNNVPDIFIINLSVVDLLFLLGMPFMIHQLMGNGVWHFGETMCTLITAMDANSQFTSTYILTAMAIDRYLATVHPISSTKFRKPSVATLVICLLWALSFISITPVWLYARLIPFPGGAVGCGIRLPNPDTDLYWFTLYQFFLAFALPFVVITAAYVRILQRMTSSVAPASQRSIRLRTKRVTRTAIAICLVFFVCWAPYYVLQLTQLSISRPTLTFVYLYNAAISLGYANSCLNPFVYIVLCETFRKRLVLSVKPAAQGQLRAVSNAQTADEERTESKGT
In short: as §1

Human Melanocortin (MC3) = molecular target: T8, Human Melanocortin (MC3) (Homo sapiens, UniProt P41968); assay: Radioligand binding, human melanocortin MC3 membranes, FlashPlate, [125I]-NDP-αMSH; details: compound at 10 μM; [125I]-NDP-αMSH
T8 construct: purchased Perkin Elmer Biosignal
T8 sequence (P41968 whole entry): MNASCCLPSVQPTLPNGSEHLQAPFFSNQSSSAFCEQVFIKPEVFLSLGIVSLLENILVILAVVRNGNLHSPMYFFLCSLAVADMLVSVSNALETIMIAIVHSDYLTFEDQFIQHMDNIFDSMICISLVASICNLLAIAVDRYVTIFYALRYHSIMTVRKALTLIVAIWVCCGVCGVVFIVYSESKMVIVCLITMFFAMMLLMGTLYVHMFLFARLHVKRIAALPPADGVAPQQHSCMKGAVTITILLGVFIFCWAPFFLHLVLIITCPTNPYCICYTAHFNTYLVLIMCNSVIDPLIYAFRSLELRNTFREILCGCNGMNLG
In short: as §1

Human neurokinin (NK1) = molecular target: T9, Human neurokinin (NK1) (Homo sapiens, UniProt P25103); assay: Radioligand binding, human neurokinin NK1 membranes, filtration, [125I]-Substance P; details: compound at 10 μM; [125I]-Substance P
T9 construct: purchased Perkin Elmer Biosignal
T9 sequence (P25103 whole entry): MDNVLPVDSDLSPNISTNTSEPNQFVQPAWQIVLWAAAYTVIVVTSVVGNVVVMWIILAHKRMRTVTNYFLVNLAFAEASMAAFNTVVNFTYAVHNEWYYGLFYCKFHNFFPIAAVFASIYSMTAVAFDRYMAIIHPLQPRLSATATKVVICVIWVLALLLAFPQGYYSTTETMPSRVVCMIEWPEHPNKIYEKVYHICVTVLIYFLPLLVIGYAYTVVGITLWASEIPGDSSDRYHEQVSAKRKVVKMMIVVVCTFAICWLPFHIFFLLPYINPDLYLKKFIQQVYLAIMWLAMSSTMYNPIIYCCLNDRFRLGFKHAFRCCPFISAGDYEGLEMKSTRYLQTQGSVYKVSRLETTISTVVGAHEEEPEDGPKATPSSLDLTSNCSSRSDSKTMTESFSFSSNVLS
In short: as §2

Human δ-opioid (DOP) = molecular target: T10, Human δ-opioid (DOP) (Homo sapiens, UniProt P41143); assay: Radioligand binding, human δ-opioid (DOP) membranes, FlashPlate, [3H]-Bremazocine; details: compound at 10 μM; [3H]-Bremazocine
T10 construct: purchased Perkin Elmer Biosignal
T10 sequence (P41143 whole entry): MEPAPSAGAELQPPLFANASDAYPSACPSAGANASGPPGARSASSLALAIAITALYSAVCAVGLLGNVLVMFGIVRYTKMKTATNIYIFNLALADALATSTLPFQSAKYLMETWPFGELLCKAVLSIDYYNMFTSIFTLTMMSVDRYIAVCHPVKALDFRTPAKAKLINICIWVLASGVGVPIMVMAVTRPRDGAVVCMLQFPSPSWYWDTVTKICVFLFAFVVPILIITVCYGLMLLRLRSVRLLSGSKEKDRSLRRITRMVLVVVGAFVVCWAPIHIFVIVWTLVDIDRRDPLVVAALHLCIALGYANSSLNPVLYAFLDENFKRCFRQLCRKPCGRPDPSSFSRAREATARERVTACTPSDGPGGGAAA
In short: as §1

Human melanocortin (MC5) = molecular target: T11, Human melanocortin (MC5) (Homo sapiens, UniProt P33032); assay: Radioligand binding, human melanocortin MC5 membranes, FlashPlate, [125I]-NDP-αMSH; details: compound at 10 μM; [125I]-NDP-αMSH
T11 construct: purchased Perkin Elmer Biosignal
T11 sequence (P33032 whole entry): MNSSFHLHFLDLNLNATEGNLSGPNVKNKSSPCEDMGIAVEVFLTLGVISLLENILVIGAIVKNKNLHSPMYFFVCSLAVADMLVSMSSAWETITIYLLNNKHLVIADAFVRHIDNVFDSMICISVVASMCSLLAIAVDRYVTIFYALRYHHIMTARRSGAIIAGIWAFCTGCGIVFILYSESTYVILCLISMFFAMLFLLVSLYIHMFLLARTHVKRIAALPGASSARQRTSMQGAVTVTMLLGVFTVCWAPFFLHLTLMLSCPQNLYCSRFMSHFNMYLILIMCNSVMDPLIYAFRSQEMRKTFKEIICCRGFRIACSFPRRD
In short: as §1

SMILES	A9 radioligand binding, percentage inhibition [1]	A2 radioligand binding, percentage inhibition (Human κ-Opioid (KOP))	A11 radioligand binding, percentage inhibition (Mouse urotensin (mUR2))	A7 radioligand binding, percentage inhibition (Human μ-opioid (MOP))	A4 radioligand binding, percentage inhibition (Human Melanocortin (MC4))	A10 radioligand binding, percentage inhibition (Human opioid (ORL1))	A6 radioligand binding, percentage inhibition [2]	A3 radioligand binding, percentage inhibition (Human Melanocortin (MC3))	A8 radioligand binding, percentage inhibition (Human neurokinin (NK1))	A1 radioligand binding, percentage inhibition (Human δ-opioid (DOP))	A5 radioligand binding, percentage inhibition (Human melanocortin (MC5))
COCC1OC(OCc2ccccc2)C(NC(=O)CCN)C(OCc2ccc(Cl)cc2)C1O (stereo not drawn) [compound 178]	− (“−” indicates less than 50% inhibition at 10 μM)	− (“−” indicates less than 50% inhibition at 10 μM)	− (“−” indicates less than 50% inhibition at 10 μM)	− (“−” indicates less than 50% inhibition at 10 μM)	− (“−” indicates less than 50% inhibition at 10 μM)	− (“−” indicates less than 50% inhibition at 10 μM)	− (“−” indicates less than 50% inhibition at 10 μM)	− (“−” indicates less than 50% inhibition at 10 μM)	+ (“+” indicates greater than 50% inhibition at 10 μM)	− (“−” indicates less than 50% inhibition at 10 μM)	+ (“+” indicates greater than 50% inhibition at 10 μM)
COCC1OC(OCc2ccccc2)C(NC(=O)CCNC(=N)N)C(OCc2ccc(Cl)cc2)C1O (stereo not drawn) [compound 179]	− (“−” indicates less than 50% inhibition at 10 μM)	− (“−” indicates less than 50% inhibition at 10 μM)	− (“−” indicates less than 50% inhibition at 10 μM)	− (“−” indicates less than 50% inhibition at 10 μM)	+ (“+” indicates greater than 50% inhibition at 10 μM)	− (“−” indicates less than 50% inhibition at 10 μM)	+ (“+” indicates greater than 50% inhibition at 10 μM)	+ (“+” indicates greater than 50% inhibition at 10 μM)	+ (“+” indicates greater than 50% inhibition at 10 μM)	+ (“+” indicates greater than 50% inhibition at 10 μM)	+ (“+” indicates greater than 50% inhibition at 10 μM)
COCC1OC(OCc2ccccc2)C(NC(=O)CCCN)C(OCc2ccc(Cl)cc2)C1O (stereo not drawn) [compound 180]	− (“−” indicates less than 50% inhibition at 10 μM)	− (“−” indicates less than 50% inhibition at 10 μM)	− (“−” indicates less than 50% inhibition at 10 μM)	− (“−” indicates less than 50% inhibition at 10 μM)	− (“−” indicates less than 50% inhibition at 10 μM)	− (“−” indicates less than 50% inhibition at 10 μM)	− (“−” indicates less than 50% inhibition at 10 μM)	− (“−” indicates less than 50% inhibition at 10 μM)	+ (“+” indicates greater than 50% inhibition at 10 μM)	− (“−” indicates less than 50% inhibition at 10 μM)	− (“−” indicates less than 50% inhibition at 10 μM)
COCC1OC(OCc2ccccc2)C(NC(=O)CCCNC(=N)N)C(OCc2ccc(Cl)cc2)C1O (stereo not drawn) [compound 181]	− (“−” indicates less than 50% inhibition at 10 μM)	− (“−” indicates less than 50% inhibition at 10 μM)	− (“−” indicates less than 50% inhibition at 10 μM)	− (“−” indicates less than 50% inhibition at 10 μM)	+ (“+” indicates greater than 50% inhibition at 10 μM)	− (“−” indicates less than 50% inhibition at 10 μM)	+ (“+” indicates greater than 50% inhibition at 10 μM)	− (“−” indicates less than 50% inhibition at 10 μM)	+ (“+” indicates greater than 50% inhibition at 10 μM)	− (“−” indicates less than 50% inhibition at 10 μM)	+ (“+” indicates greater than 50% inhibition at 10 μM)
COCC1OC(OCc2ccccc2)C(NC(=O)CN)C(OCc2ccc(-c3ccccc3)cc2)C1O (stereo not drawn) [compound 182]	− (“−” indicates less than 50% inhibition at 10 μM)	− (“−” indicates less than 50% inhibition at 10 μM)	− (“−” indicates less than 50% inhibition at 10 μM)	− (“−” indicates less than 50% inhibition at 10 μM)	− (“−” indicates less than 50% inhibition at 10 μM)	− (“−” indicates less than 50% inhibition at 10 μM)	− (“−” indicates less than 50% inhibition at 10 μM)	− (“−” indicates less than 50% inhibition at 10 μM)	+ (“+” indicates greater than 50% inhibition at 10 μM)	− (“−” indicates less than 50% inhibition at 10 μM)	− (“−” indicates less than 50% inhibition at 10 μM)
COCC1OC(OCc2ccccc2)C(NC(=O)CNC(=N)N)C(OCc2ccc(-c3ccccc3)cc2)C1O (stereo not drawn) [compound 183]	− (“−” indicates less than 50% inhibition at 10 μM)	− (“−” indicates less than 50% inhibition at 10 μM)	− (“−” indicates less than 50% inhibition at 10 μM)	− (“−” indicates less than 50% inhibition at 10 μM)	+ (“+” indicates greater than 50% inhibition at 10 μM)	− (“−” indicates less than 50% inhibition at 10 μM)	+ (“+” indicates greater than 50% inhibition at 10 μM)	− (“−” indicates less than 50% inhibition at 10 μM)	+ (“+” indicates greater than 50% inhibition at 10 μM)	− (“−” indicates less than 50% inhibition at 10 μM)	+ (“+” indicates greater than 50% inhibition at 10 μM)
